Read-outs that look alike come from different tables or passages of the source.
Target: T1, LRRK2 (Homo sapiens, UniProt Q5S007, G2019S)
T1 construct: purchased Invitrogen PV4882 (lot 567054A)
Test: In Vitro LRRK2 Assay (LabChip 3000, fluorescently-labeled peptide substrate, ATP)
Format: biochemical
Summary of the method: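 LRRK2, fluorescent peptide substrate (diluted to 4 μM before mixing), ATP and compound were incubated 2 h in the dark, then stopped. Phosphorylated and unphosphorylated peptide were separated by capillary electrophoresis and quantified by fluorescence. Ki was fitted with a tight-binding equation including enzyme concentration, S and Km; IC50 or percent inhibition were also reported.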

[1] = read-out: LRRK2 Ki (KI), Table 8
[2] = read-out: LRRK2 Ki (KI), Table 7
[3] = Table 10, LRRK2 Ki (micromolar), read-out: LRRK2 Ki (KI)

T1 sequence (Q5S007 whole entry G2019S): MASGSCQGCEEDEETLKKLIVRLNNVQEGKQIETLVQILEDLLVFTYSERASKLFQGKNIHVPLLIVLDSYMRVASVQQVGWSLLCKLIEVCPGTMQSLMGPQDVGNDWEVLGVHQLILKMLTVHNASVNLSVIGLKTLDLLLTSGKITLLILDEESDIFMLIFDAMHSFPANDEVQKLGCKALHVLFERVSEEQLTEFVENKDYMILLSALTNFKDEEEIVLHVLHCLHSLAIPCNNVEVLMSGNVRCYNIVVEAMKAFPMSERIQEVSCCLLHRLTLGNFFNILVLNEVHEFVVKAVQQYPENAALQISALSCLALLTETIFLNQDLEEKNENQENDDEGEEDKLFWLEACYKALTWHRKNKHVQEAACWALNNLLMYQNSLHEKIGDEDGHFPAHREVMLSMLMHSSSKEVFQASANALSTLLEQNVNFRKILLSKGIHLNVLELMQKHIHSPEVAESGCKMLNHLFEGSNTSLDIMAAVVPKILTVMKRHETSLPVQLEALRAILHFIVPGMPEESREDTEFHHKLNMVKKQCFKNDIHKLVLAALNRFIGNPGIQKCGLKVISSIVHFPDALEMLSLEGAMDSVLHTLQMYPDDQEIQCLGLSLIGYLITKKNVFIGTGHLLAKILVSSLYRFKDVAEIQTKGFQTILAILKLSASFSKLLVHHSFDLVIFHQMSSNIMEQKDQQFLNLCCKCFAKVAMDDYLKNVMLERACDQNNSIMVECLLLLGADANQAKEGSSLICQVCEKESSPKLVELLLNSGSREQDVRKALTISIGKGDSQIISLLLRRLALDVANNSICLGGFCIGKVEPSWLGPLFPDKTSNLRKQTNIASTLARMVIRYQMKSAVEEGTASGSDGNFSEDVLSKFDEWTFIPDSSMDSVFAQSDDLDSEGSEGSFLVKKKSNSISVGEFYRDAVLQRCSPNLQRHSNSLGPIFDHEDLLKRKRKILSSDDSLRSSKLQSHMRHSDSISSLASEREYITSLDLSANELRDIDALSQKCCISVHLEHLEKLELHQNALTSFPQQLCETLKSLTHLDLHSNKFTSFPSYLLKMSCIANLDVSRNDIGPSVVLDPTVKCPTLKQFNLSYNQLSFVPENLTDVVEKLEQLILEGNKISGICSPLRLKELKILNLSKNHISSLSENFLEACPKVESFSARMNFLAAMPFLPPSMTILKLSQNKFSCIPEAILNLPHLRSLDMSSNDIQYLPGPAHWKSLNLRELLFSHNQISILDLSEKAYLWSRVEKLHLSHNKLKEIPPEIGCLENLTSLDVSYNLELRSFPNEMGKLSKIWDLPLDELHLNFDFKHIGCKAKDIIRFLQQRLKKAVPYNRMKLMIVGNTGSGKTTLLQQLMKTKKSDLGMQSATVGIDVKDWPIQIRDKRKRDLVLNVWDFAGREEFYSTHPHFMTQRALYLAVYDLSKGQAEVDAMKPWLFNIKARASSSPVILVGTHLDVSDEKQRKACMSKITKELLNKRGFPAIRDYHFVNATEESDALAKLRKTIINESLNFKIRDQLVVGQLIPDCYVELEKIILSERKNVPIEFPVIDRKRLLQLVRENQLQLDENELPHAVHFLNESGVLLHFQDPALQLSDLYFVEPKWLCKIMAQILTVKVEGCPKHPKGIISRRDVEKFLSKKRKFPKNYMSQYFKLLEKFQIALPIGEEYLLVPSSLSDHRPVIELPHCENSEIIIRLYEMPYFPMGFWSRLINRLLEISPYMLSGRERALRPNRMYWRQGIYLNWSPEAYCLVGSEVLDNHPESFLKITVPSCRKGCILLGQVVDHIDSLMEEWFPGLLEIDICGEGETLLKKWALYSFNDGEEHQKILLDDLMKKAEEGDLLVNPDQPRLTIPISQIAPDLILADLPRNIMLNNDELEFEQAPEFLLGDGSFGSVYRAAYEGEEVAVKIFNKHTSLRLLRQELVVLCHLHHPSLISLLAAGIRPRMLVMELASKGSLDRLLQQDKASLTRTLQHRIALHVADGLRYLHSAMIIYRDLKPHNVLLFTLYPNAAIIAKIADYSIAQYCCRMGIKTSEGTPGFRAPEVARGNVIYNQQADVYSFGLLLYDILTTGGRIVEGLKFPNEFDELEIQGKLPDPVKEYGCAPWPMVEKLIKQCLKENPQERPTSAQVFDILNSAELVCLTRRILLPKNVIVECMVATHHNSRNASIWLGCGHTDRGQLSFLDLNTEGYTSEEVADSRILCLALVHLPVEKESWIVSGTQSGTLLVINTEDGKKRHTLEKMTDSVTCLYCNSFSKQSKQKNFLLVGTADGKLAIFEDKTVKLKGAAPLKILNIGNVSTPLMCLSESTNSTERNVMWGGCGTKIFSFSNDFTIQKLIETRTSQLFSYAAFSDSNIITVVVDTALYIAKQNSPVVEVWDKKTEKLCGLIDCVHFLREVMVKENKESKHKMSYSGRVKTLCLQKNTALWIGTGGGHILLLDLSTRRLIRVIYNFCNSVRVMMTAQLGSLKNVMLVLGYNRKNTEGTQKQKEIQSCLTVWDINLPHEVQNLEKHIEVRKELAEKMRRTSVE

| Structure (SMILES) | Ki [1] [nM] | other results |
| --- | --- | --- |
| CCn1cc(Nc2ncc(Br)c(NC)n2)c(C)n1 [Example 253, 5-Bromo-N2-(1-ethyl-3-methyl-1H-pyrazol-4-yl)-N4-methyl-pyrimidine-2,4-diamine] | 2.2 |  |
| CNc1nc(Nc2cn(C)nc2C2CCC2)ncc1C(F)(F)F [Example 228, N2-(3-cyclobutyl-1-methyl-1H-pyrazol-4-yl)-N4-methyl-5-(trifluoromethyl) pyrimidine-2,4-diamine] | 3.4 |  |
| CNc1nc(Nc2cn(C3CCN(C(=O)C4CC4)CC3)nc2C)ncc1C(F)(F)F [Example 136, cyclopropyl(4-(3-methyl-4-(4-(methylamino)-5-(trifluoromethyl)pyrimidin-2-ylamino)-1H-pyrazol-1-yl)piperidin-1-yl)methanone] | 9.3 |  |
| CNc1nc(Nc2cn([C@H](C)COC)nc2C)ncc1C(F)(F)F [Example 200, (R)-N2-(1-(1-methoxypropan-2-yl)-3-methyl-1H-pyrazol-4-yl)-N4-methyl-5-(trifluoromethyl) pyrimidine-2,4-diamine] | 12.8 |  |
| CNc1nc(Nc2cnn(C(C)C)c2C)ncc1C#N [Example 374, 2-(1-isopropyl-5-methyl-1H-pyrazol-4-ylamino)-4-(methylamino) pyrimidine-5-carbonitrile] |  | Ki (Table 9, LRRK2 Ki (micromolar), read-out: LRRK2 Ki (KI)): 15.8 nM |
| COc1nc(Nc2cn(-c3ccccc3)nc2C)ncc1C(F)(F)F [Example 77, (4-Methoxy-5-trifluoromethyl-pyrimidin-2-yl)-(3-methyl-1-phenyl-1H-pyrazol-4-yl)-amine] |  | Ki [2]: 1.6 nM |
| CNc1nc(Nc2cnn(C)c2C(C)C)ncc1C(F)(F)F [Example 223, N2-(5-isopropyl-1-methyl-1H-pyrazol-4-yl)-N4-methyl-5-(trifluoromethyl) pyrimidine-2,4-diamine] | 14 |  |
| CNc1nc(Nc2cn(C(C)(C)COC)nc2C)ncc1C(F)(F)F [Example 190, N2-(1-(1-methoxy-2-methylpropan-2-yl)-3-methyl-1H-pyrazol-4-yl)-N4-methyl-5-(trifluoromethyl) pyrimidine-2,4-diamine] | 6.9 |  |
| CNc1nc(Nc2cnn(C(C)C)c2Cl)ncc1C(F)(F)F [Example 138, N2-(5-chloro-1-isopropyl-1H-pyrazol-4-yl)-N4-methyl-5-(trifluoromethyl) pyrimidine-2,4-diamine] | 1.1 |  |
| CNc1nc(Nc2cnn(C(C)(C)C#N)c2Cl)ncc1C(F)(F)F [Example 418, 2-(5-chloro-4-(4-(methylamino)-5-(trifluoromethyl)pyrimidin-2-ylamino)-1H-pyrazol-1-yl)-2-methylpropanenitrile] |  | Ki [3]: 1.9 nM |
| CCNc1nc(Nc2cn(C3CCN(C(C)=O)CC3)nc2C)ncc1C(F)(F)F [Example 134, 1-(4-(4-(4-(ethylamino)-5-(trifluoromethyl)pyrimidin-2-ylamino)-3-methyl-1H-pyrazol-1-yl)piperidin-1-yl)ethanone] | 2.2 |  |
| CNc1nc(Nc2cn(C(F)F)nc2C)ncc1C(F)(F)F [Example 105, N2-(1-(difluoromethyl)-3-methyl-1H-pyrazol-4-yl)-N4-methyl-5-(trifluoromethyl) pyrimidine-2,4-diamine] | 5.5 |  |
| CNc1nc(Nc2cn(C(C)(C)C(=O)NC(C)(C)C)nc2C)ncc1C(F)(F)F [Example 423, N-tert-butyl-2-methyl-2-(3-methyl-4-(4-(methylamino)-5-(trifluoromethyl)pyrimidin-2-ylamino)-1H-pyrazol-1-yl)propanamide] |  | Ki [3]: 73 nM |
| CNc1nc(Nc2cn(C3CCN(C)CC3F)nc2C)ncc1C(F)(F)F (stereo not shown) [Example 222, N2-(1-(3-fluoro-1-methylpiperidin-4-yl)-3-methyl-1H-pyrazol-4-yl)-N4-methyl-5-(trifluoromethyl) pyrimidine-2,4-diamine] | 1.6 |  |
| CNc1nc(Nc2cn(C(F)F)nc2C)ncc1Br [Example 256, 5-Bromo-N2-(1-difluoromethyl-3-methyl-1H-pyrazol-4-yl)-N4-methyl-pyrimidine-2,4-diamine] | 2.2 |  |
| CNc1nc(Nc2cnn(C)c2C2CC2)ncc1C(F)(F)F [Example 178, N2-(5-cyclopropyl-1-methyl-1H-pyrazol-4-yl)-N4-methyl-5-(trifluoromethyl) pyrimidine-2,4-diamine] | 12 |  |
| CNc1nc(Nc2cn(C(C)(C)c3nnc[nH]3)nc2C)ncc1C(F)(F)F [Example 332, N4-Methyl-N2-{3-methyl-1-[1-methyl-1-(4H-[1,2,4]triazol-3-yl)-ethyl]-1H-pyrazol-4-yl}-5-trifluoromethyl-pyrimidine-2,4-diamine] | 2.3 |  |
| CNc1nc(Nc2cn(C(C)(C)C(=O)OC)nc2C)ncc1C(F)(F)F [Example 408, methyl 2-methyl-2-(3-methyl-4-(4-(methylamino)-5-(trifluoromethyl)pyrimidin-2-ylamino)-1H-pyrazol-1-yl)propanoate] |  | Ki [3]: 4.7 nM |
| CNc1nc(Nc2cnn(C(F)F)c2C)ncc1C(F)(F)F [Example 106, N2-(1-(difluoromethyl)-5-methyl-1H-pyrazol-4-yl)-N4-methyl-5-(trifluoromethyl) pyrimidine-2,4-diamine] | 1.9 |  |
| CNc1nc(Nc2cnn(-c3ccc(Cl)cc3)c2C)ncc1C(F)(F)F [Example 123, N2-(1-(4-chlorophenyl)-5-methyl-1H-pyrazol-4-yl)-N4-methyl-5-(trifluoromethyl) pyrimidine-2,4-diamine] | 0.3 |  |
| CNc1nc(Nc2cnn(-c3ccc(S(C)(=O)=O)cc3)c2C)ncc1C(F)(F)F [Example 125, N4-methyl-N2-(5-methyl-1-(4-(methylsulfonyl)phenyl)-1H-pyrazol-4-yl)-5-(trifluoromethyl) pyrimidine-2,4-diamine] | 4.7 |  |
| CCNc1nc(Nc2cnn(C3CCN(CCOC)CC3)c2C)ncc1C(F)(F)F [Example 283, N4-Ethyl-N2-{1-[1-(2-methoxy-ethyl)-piperidin-4-yl]-5-methyl-1H-pyrazol-4-yl}-5-trifluoromethyl-pyrimidine-2,4-diamine] | 2 |  |
| CNc1nc(Nc2cnn(CC(C)(C)O)c2C(F)(F)F)ncc1C(F)(F)F [Example 197, 2-methyl-1-(4-(4-(methylamino)-5-(trifluoromethyl)pyrimidin-2-ylamino)-5-(trifluoromethyl)-1H-pyrazol-1-yl)propan-2-ol] | 26 |  |
| COc1nc(Nc2cn(C(C)C)nc2C)ncc1Cl [Example 29, 5-Chloro-N-(1-isopropyl-3-methyl-1H-pyrazol-4-yl)-4-methoxy-pyrimidin-2-amine] |  | Ki [2]: 22 nM |
| CNc1nc(Nc2cnn(C(F)F)c2C)ncc1Br [Example 255, 5-Bromo-N2-(1-difluoromethyl-5-methyl-1H-pyrazol-4-yl)-N4-methyl-pyrimidine-2,4-diamine] | 0.7 |  |
| CNc1nc(Nc2cn(CC(C)(C)O)nc2C)ncc1C(F)(F)F [Example 250, 2-Methyl-1-[3-methyl-4-(4-methylamino-5-trifluoromethyl-pyrimidin-2-ylamino)-pyrazol-1-yl]-propan-2-ol] | 12.2 |  |
| CCNc1nc(Nc2cn(CCOC)nc2C)ncc1C(F)(F)F [Example 294, N4-Ethyl-N2-[1-(2-methoxy-ethyl)-3-methyl-1H-pyrazol-4-yl]-5-trifluoromethyl-pyrimidine-2,4-diamine] | 1.1 |  |
| CNc1nc(Nc2cn(-c3ccc(Cl)cc3)nc2C)ncc1C(F)(F)F [Example 129, N2-(1-(4-chlorophenyl)-3-methyl-1H-pyrazol-4-yl)-N4-methyl-5-(trifluoromethyl) pyrimidine-2,4-diamine] | 28 |  |
